Experimental data as given in patent US8952024B2, “Herbicidal pyrimidone derivatives” (E I du Pont de Nemours and Company, priority 2009, dated 2015).

Key:
Type in all cases: in vivo
[1] = system: barnyardgrass (Echinochloa crus-galli); assay: Test A pre-/postemergence plant response
Summary of the method: (§1)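 Injury scores (0, no effect; 100, complete control) come from visual comparison with untreated controls roughly ten days post-treatment. Test chemicals in a surfactant-containing non-phytotoxic solvent were applied as a directed soil spray preemergence and to one- to two-leaf seedlings postemergence.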

corn (Zea mays) = assay: Test A pre-/postemergence plant response
Summary of the method: as §1

[2] = system: giant foxtail (Setaria faberii); assay: Test A pre-/postemergence plant response
Summary of the method: as §1

[3] = system: large crabgrass (Digitaria sanguinalis); assay: Test A pre-/postemergence plant response
Summary of the method: as §1

[4] = system: morningglory (Ipomoea spp.); assay: Test A pre-/postemergence plant response
Summary of the method: as §1

[5] = system: pigweed (Amaranthus retroflexus); assay: Test A pre-/postemergence plant response
Summary of the method: as §1

[6] = system: velvetleaf (Abutilon theophrasti); assay: Test A pre-/postemergence plant response
Summary of the method: as §1

[7] = system: wheat (Triticum aestivum); assay: Test A pre-/postemergence plant response
Summary of the method: as §1

[8] = system: winter barley (Hordeum vulgare); assay: Test B postemergence plant response; settings: for Barley plant response rating (0 to 100 scale): 0 is no effect
Summary of the method: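 Plants at the 1- to 4-leaf stage (2 to 18 cm tall), grown in pots of peat moss/vermiculite medium with wetting agent and starter nutrients, received postemergence applications of test chemicals. After 13 to 15 days in a greenhouse, injury was rated visually against untreated controls on a 0 (no effect) to 100 (complete control) scale.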

[9] = system: barnyardgrass (Echinochloa crus-galli); assay: Test B flooded paddy test; settings: for Plant response rating, Flood, Barnyardgrass: 250 g ai/ha, flooded paddy test, visual rating on 0 to 100 scale (0 no effect, 100 complete control) after 13 to 15 days; for Plant response rating, Barnyardgrass: Flood (flooded paddy test), 13 to 15 days; for Barnyardgrass plant response rating: Flood, 31 g ai/ha, scale 0 to 100 (0 no effect, 100 complete control)
Summary of the method: (§2)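 Rice, umbrella sedge, ducksalad and barnyardgrass were grown to the 2-leaf stage, flooded to 3 cm, and compound was applied directly to the paddy water, with that depth kept throughout. After 13 to 15 days in the greenhouse, plants were visually rated against controls on a 0 (no effect) to 100 (complete control) scale.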

[10] = system: ducksalad (Heteranthera limosa); assay: Test B flooded paddy test; settings: for Plant response rating, Flood, Ducksalad: 250 g ai/ha, flooded paddy test, visual rating on 0 to 100 scale (0 no effect, 100 complete control) after 13 to 15 days; for Plant response rating, Ducksalad: Flood (flooded paddy test), 13 to 15 days; for Ducksalad plant response rating: Flood, 31 g ai/ha, scale 0 to 100 (0 no effect, 100 complete control)
Summary of the method: as §2

rice (Oryza sativa) = assay: Test B flooded paddy test; settings: for Plant response rating, Flood, Rice: 250 g ai/ha, flooded paddy test, visual rating on 0 to 100 scale (0 no effect, 100 complete control) after 13 to 15 days; for Plant response rating, Rice: Flood (flooded paddy test), 13 to 15 days; for Rice plant response rating: Flood, 31 g ai/ha, scale 0 to 100 (0 no effect, 100 complete control)
Summary of the method: as §2

[11] = system: umbrella sedge (Cyperus difformis); assay: Test B flooded paddy test; settings: for Plant response rating, Flood, Sedge, Umbrella: 250 g ai/ha, flooded paddy test, visual rating on 0 to 100 scale (0 no effect, 100 complete control) after 13 to 15 days; for Plant response rating, Sedge, Umbrella: Flood (flooded paddy test), 13 to 15 days; for Sedge, Umbrella plant response rating: Flood, 31 g ai/ha, scale 0 to 100 (0 no effect, 100 complete control)
Summary of the method: as §2

[12] = Postemergence, 125 g ai/ha, 0 to 100 scale where 0 is no effect and 100 is complete control
[13] = Postemergence, 500 g ai/ha, visual injury, 0 to 100 scale (0 no effect, 100 complete control), approx. ten days
[14] = Preemergence, 125 g ai/ha, 0 to 100 scale, 0 = no effect, 100 = complete control
[15] = Preemergence, 500 g ai/ha, 0 to 100 scale, 0 = no effect, 100 = complete control
[16] = 62 g ai/ha, postemergence, 100 is complete control, 13 to 15 days
[17] = Postemergence, 31 g ai/ha, 0 to 100 scale (0 no effect, 100 complete control)
[18] = Postemergence, 125 g ai/ha, scale 0 to 100 (0 no effect, 100 complete control)
[19] = Postemergence, 250 g ai/ha, scale 0 to 100 (0 no effect, 100 complete control), 13 to 15 days
[20] = 62 g ai/ha, scale of 0 to 100 where 0 is no effect and 100 is complete control
[21] = Postemergence, 125 g ai/ha, visual injury, 0 to 100 scale (0 no effect, 100 complete control), approx. ten days
[22] = Postemergence, 500 g ai/ha, 0 to 100 scale, 0 = no effect, 100 = complete control, approx. ten days
[23] = Preemergence, 500 g ai/ha, visual injury, 0 to 100 scale (0 no effect, 100 complete control), approx. ten days
[24] = 125 g ai/ha, scale 0 to 100, 0 is no effect, 100 is complete control

O=C1CCCC(O)=C1C(=O)c1cnc(-c2cccs2)n(C2CCCCC2)c1=O [Compound 189]
Plant response rating, Barnyardgrass [1, 12]: 90 | Barnyardgrass plant response rating [1, 13]: 90 | Plant response rating, Barnyardgrass [1, 14]: 20 | Plant response rating, Barnyardgrass [1, 15]: 90 | Plant response rating, Corn (corn (Zea mays); [12]): 10 | Corn plant response rating (corn (Zea mays); [13]): 40 | Plant response rating, Corn (corn (Zea mays); [14]): 0 | Plant response rating, Corn (corn (Zea mays); [15]): 0 | Plant response rating, Foxtail, Giant [2, 12]: 80 | Foxtail, Giant plant response rating [2, 13]: 90 | Plant response rating, Foxtail, Giant [2, 14]: 30 | Plant response rating, Foxtail, Giant [2, 15]: 60 | Plant response rating, Crabgrass, Large [3, 12]: 90 | Crabgrass, Large plant response rating [3, 13]: 90 | Plant response rating, Crabgrass, Large [3, 14]: 30 | Plant response rating, Crabgrass, Large [3, 15]: 80 | Plant response rating, Morningglory [4, 12]: 100 | Morningglory plant response rating [4, 13]: 100 | Plant response rating, Morningglory [4, 15]: 80 | Plant response rating, Pigweed [5, 12]: 100 | Pigweed plant response rating [5, 13]: 100 | Plant response rating, Pigweed [5, 14]: 70 | Plant response rating, Pigweed [5, 15]: 100 | Plant response rating, Velvetleaf [6, 12]: 100 | Velvetleaf plant response rating [6, 13]: 100 | Plant response rating, Velvetleaf [6, 14]: 70 | Plant response rating, Velvetleaf [6, 15]: 100 | Plant response rating, Wheat [7, 12]: 0 | Wheat plant response rating [7, 13]: 0 | Plant response rating, Wheat [7, 14]: 0 | Plant response rating, Wheat [7, 15]: 0 | Barley plant response rating (0 to 100 scale) [8, 16]: 5 | Plant response rating, Barley [8, 17]: 0 | Plant response rating, Barley [8, 18]: 15 | Plant response rating, Barley [8, 19]: 40 | Plant response rating, Flood, Barnyardgrass [9]: 70 | Plant response rating, Barnyardgrass [9, 20]: 30 | Plant response rating, Flood, Ducksalad [10]: 100 | Plant response rating, Ducksalad [10, 20]: 100 | Plant response rating, Flood, Rice (rice (Oryza sativa)): 60 | Plant response rating, Rice (rice (Oryza sativa); [20]): 20 | Plant response rating, Flood, Sedge, Umbrella [11]: 100 | Plant response rating, Sedge, Umbrella [11, 20]: 95

CCCCc1ncc(C(=O)C2=C(O)CCCC2=O)c(=O)n1-c1ccc(C)cc1 [Compound 67]
Barnyardgrass plant response rating [1, 21]: 70 | Plant response rating, Barnyardgrass [1, 22]: 90 | Plant response rating, Barnyardgrass [1, 14]: 0 | Plant response rating, Barnyardgrass [1, 23]: 40 | Plant response rating, Corn (corn (Zea mays); [22]): 10 | Plant response rating, Corn (corn (Zea mays); [14]): 0 | Plant response rating, Corn (corn (Zea mays); [23]): 0 | Foxtail, Giant plant response rating [2, 21]: 30 | Plant response rating, Foxtail, Giant [2, 22]: 60 | Plant response rating, Foxtail, Giant [2, 23]: 50 | Crabgrass, Large plant response rating [3, 21]: 60 | Plant response rating, Crabgrass, Large [3, 22]: 90 | Plant response rating, Crabgrass, Large [3, 14]: 30 | Plant response rating, Crabgrass, Large [3, 23]: 90 | Morningglory plant response rating [4, 21]: 100 | Plant response rating, Morningglory [4, 22]: 100 | Plant response rating, Morningglory [4, 14]: 30 | Plant response rating, Morningglory [4, 23]: 50 | Pigweed plant response rating [5, 21]: 100 | Plant response rating, Pigweed [5, 22]: 100 | Plant response rating, Pigweed [5, 14]: 90 | Plant response rating, Pigweed [5, 23]: 90 | Velvetleaf plant response rating [6, 21]: 100 | Plant response rating, Velvetleaf [6, 22]: 100 | Plant response rating, Velvetleaf [6, 14]: 70 | Plant response rating, Velvetleaf [6, 23]: 80 | Wheat plant response rating [7, 21]: 20 | Plant response rating, Wheat [7, 22]: 30 | Plant response rating, Wheat [7, 14]: 0 | Plant response rating, Wheat [7, 23]: 0 | Plant response rating, Barley ([8]; 31 g ai/ha, postemergence, scale 0 to 100, 0 is no effect, 100 is complete control): 0 | Barley plant response rating (0 to 100 scale) [8, 16]: 5 | Plant response rating, Barley ([8]; Postemergence, 125 g ai/ha, visual rating after 13 to 15 days, scale 0 (no effect) to 100 (complete control)): 20 | Plant response rating, Barley ([8]; Postemergence, 250 g ai/ha, scale 0 to 100 (0 no effect, 100 complete control)): 30 | Plant response rating, Flood, Barnyardgrass [9]: 0 | Plant response rating, Barnyardgrass [9, 20]: 0 | Plant response rating, Barnyardgrass [9, 24]: 0 | Barnyardgrass plant response rating [9]: 0 | Plant response rating, Flood, Ducksalad [10]: 0 | Plant response rating, Ducksalad [10, 20]: 0 | Plant response rating, Ducksalad [10, 24]: 0 | Ducksalad plant response rating [10]: 0 | Plant response rating, Flood, Rice (rice (Oryza sativa)): 0 | Plant response rating, Rice (rice (Oryza sativa); [20]): 0 | Plant response rating, Rice (rice (Oryza sativa); [24]): 0 | Rice plant response rating (rice (Oryza sativa)): 0 | Plant response rating, Flood, Sedge, Umbrella [11]: 0 | Plant response rating, Sedge, Umbrella [11, 20]: 0 | Plant response rating, Sedge, Umbrella [11, 24]: 0 | Sedge, Umbrella plant response rating [11]: 0

O=C1CCCC(O)=C1C(=O)c1cnc(-c2ccc(F)cc2)n(C2CCCCC2)c1=O [Compound 197]
Plant response rating, Barnyardgrass [1, 12]: 80 | Barnyardgrass plant response rating [1, 13]: 100 | Plant response rating, Barnyardgrass [1, 14]: 0 | Plant response rating, Barnyardgrass [1, 15]: 40 | Plant response rating, Corn (corn (Zea mays); [12]): 20 | Corn plant response rating (corn (Zea mays); [13]): 50 | Plant response rating, Corn (corn (Zea mays); [14]): 0 | Plant response rating, Corn (corn (Zea mays); [15]): 30 | Plant response rating, Foxtail, Giant [2, 12]: 80 | Foxtail, Giant plant response rating [2, 13]: 100 | Plant response rating, Foxtail, Giant [2, 14]: 0 | Plant response rating, Foxtail, Giant [2, 15]: 50 | Plant response rating, Crabgrass, Large [3, 12]: 70 | Crabgrass, Large plant response rating [3, 13]: 100 | Plant response rating, Crabgrass, Large [3, 14]: 0 | Plant response rating, Crabgrass, Large [3, 15]: 60 | Plant response rating, Morningglory [4, 12]: 100 | Morningglory plant response rating [4, 13]: 100 | Plant response rating, Morningglory [4, 14]: 0 | Plant response rating, Morningglory [4, 15]: 60 | Plant response rating, Pigweed [5, 12]: 100 | Pigweed plant response rating [5, 13]: 100 | Plant response rating, Pigweed [5, 14]: 20 | Plant response rating, Pigweed [5, 15]: 100 | Plant response rating, Velvetleaf [6, 12]: 100 | Velvetleaf plant response rating [6, 13]: 100 | Plant response rating, Velvetleaf [6, 14]: 40 | Plant response rating, Velvetleaf [6, 15]: 90 | Plant response rating, Wheat [7, 12]: 0 | Wheat plant response rating [7, 13]: 0 | Plant response rating, Wheat [7, 14]: 0 | Plant response rating, Wheat [7, 15]: 20 | Plant response rating, Barley [8, 17]: 0 | Plant response rating, Barley ([8]; Postemergence, 62 g ai/ha, scale 0 to 100 (0 no effect, 100 complete control)): 5 | Plant response rating, Barley [8, 18]: 10 | Plant response rating, Barley [8, 19]: 40 | Plant response rating, Flood, Barnyardgrass [9]: 30 | Plant response rating, Barnyardgrass [9, 20]: 0 | Plant response rating, Barnyardgrass [9, 24]: 20 | Barnyardgrass plant response rating [9]: 0 | Plant response rating, Flood, Ducksalad [10]: 85 | Plant response rating, Ducksalad [10, 20]: 65 | Plant response rating, Ducksalad [10, 24]: 80 | Ducksalad plant response rating [10]: 65 | Plant response rating, Flood, Rice (rice (Oryza sativa)): 45 | Plant response rating, Rice (rice (Oryza sativa); [20]): 0 | Plant response rating, Rice (rice (Oryza sativa); [24]): 30 | Rice plant response rating (rice (Oryza sativa)): 0 | Plant response rating, Flood, Sedge, Umbrella [11]: 85 | Plant response rating, Sedge, Umbrella [11, 20]: 70 | Plant response rating, Sedge, Umbrella [11, 24]: 75 | Sedge, Umbrella plant response rating [11]: 65
